Reference: EP0992240A1, “THERAPEUTIC AGENT FOR ERECTION FAILURE” (MOCHIDA PHARMACEUTICAL CO., LTD., priority 1997, dated 1998)

Assays:
PDE type V = molecular target: T1, PDE type V (Canis lupus familiaris, UniProt O77746); assay: PDE inhibiting activity, type V; assay type: biochemical, dog; settings: PDE purified from canine aorta; 1 µM substrate cGMP or cAMP; read-out: Inhibition Activity IC50 (µM) Type V
T1 construct: By elution with a sodium chloride gradient (0 - 0.4 M), PDE types V and III were separated from the other isozymes; from tissue; host or cells: canine aorta
Experimental: The canine aorta was minced and homogenized with a Waring Blender and a glass homogenizer in six volumes of a Tris-HCl buffer solution (pH 7.5, 20 mM) containing 2 mM magnesium acetate, 5 mM ethylenediaminetetraacetic acid (EDTA), 100 µg/mL of phenylmethylsulforyl fluoride and 15 mM 2-mercaptoethanol (2-ME), and centrifuged at 1200 x g for 30 min. […] By elution with a sodium chloride gradient (0 - 0.4 M), PDE types V and III were separated from the other isozymes. […] The resulting precipitated fraction was similarly applied to the DEAE-trisacryl column and eluted by a sodium chloride gradient (0 - 0.4 M) so as to separate PDE type I.
Specifically, a purified PDE sample was added to 50 mM Tris-HCl buffer solution (pH 7.5) containing 1 µM of substrate cGMP or cAMP (containing tritium-labelled cGMP or cAMP), 1 mM EGTA and 2 mM magnesium acetate. For PDE activity measurement, enzymatically produced 5' GMP or 5' AMP was further hydrolyzed into guanosine or adenosine with snake venom and separated from the substrate by means of an ion-exchange resin (Dowex 1-X2), followed by measuring with a scintillation counter. […] The final concentration of DMSO was adjusted to be no more than 2% in consideration of the effect on PDE activity.

PDE type I = assay: PDE inhibiting activity, type I; assay type: biochemical, dog; settings: PDE purified from canine aorta; 1 µM substrate cGMP or cAMP; read-out: Inhibition Activity IC50 (µM) Type I
Experimental: On the basis of the method of Lugnier et al. (Biochem. Pharmacol., 35, 1743-1751, 1986), PDE was purified from the aorta in a dog. The canine aorta was minced and homogenized with a Waring Blender and a glass homogenizer in six volumes of a Tris-HCl buffer solution (pH 7.5, 20 mM) containing 2 mM magnesium acetate, 5 mM ethylenediaminetetraacetic acid (EDTA), 100 µg/mL of phenylmethylsulforyl fluoride and 15 mM 2-mercaptoethanol (2-ME), and centrifuged at 1200 x g for 30 min. The supernatant was separated and salted out with ammonium sulfate which was added to 45% saturation. The resulting precipitated fraction was resuspended in a Tris-HCl buffer solution (pH 7.5, 20 mM) containing 2 mM magnesium acetate and 1 mM 2-ME, dialyzed overnight and applied to a DEAE-trisacryl column (DEAE […] M:IBF). By elution with a sodium chloride gradient (0 - 0.4 M), PDE types V and III were separated from the other isozymes. The supernatant fraction of 45% saturated ammonium sulfate was further mixed with ammonium sulfate to 65% saturation and salted out. The resulting precipitated fraction was similarly applied to the DEAE-trisacryl column and eluted by a sodium chloride gradient (0 - 0.4 M) so as to separate PDE type I.
The thus obtained PDE types V, III and I were measured for their activity in accordance with the method of Thompson et al. (Adv. Cyclic Nucleotide Res., 10, 69-72, 1979) and the method of Wells et al. (Biochim. Biophys. Acta, 384, 430-443, 1975). Specifically, a purified PDE sample was added to 50 mM Tris-HCl buffer solution (pH 7.5) containing 1 µM of substrate cGMP or cAMP (containing tritium-labelled cGMP or cAMP), 1 mM EGTA and 2 mM magnesium acetate. For PDE activity measurement, enzymatically produced 5' GMP or 5' AMP was further hydrolyzed into guanosine or adenosine with snake venom and separated from the substrate by means of an ion-exchange resin (Dowex 1-X2), followed by measuring with a scintillation counter. The activity of each test compound was determined as a percentage of the PDE activity measured when it was added as a dimethyl sulfoxide solution (DMSO) and its IC50 (50% inhibition concentration) was calculated by the probit method. The final concentration of DMSO was adjusted to be no more than 2% in consideration of the effect on PDE activity.

Row | Compound | IC50 (PDE type V) | IC50 (PDE type I)
1 | COc1cc2c(=O)ccn3c4ccc(Br)cc4c(c1)c23 [Example 19, 10-bromo-2-methoxy-4H-pyrido[3,2,1-jk]carbazol-4-one] | 0.05 µM | > 10 µM
2 | COc1cc2c(=O)c(Cc3ccccc3)cn3c4cc(Br)ccc4c(c1)c23 [Example 39, 5-benzyl-9-bromo-2-methoxy-4H-pyrido[3,2,1-jk]carbazol-4-one] | 0.026 µM | > 30 µM
3 | COc1cc2c(=O)c(C)cn3c4ccc(Br)cc4c(c1)c23 [Example 13, 10-bromo-2-methoxy-5-methyl-4H-pyrido[3,2,1-jk]carbazol-4-one] | 0.1 µM | > 100 µM
4 | O=c1c(Cc2cccnc2)cn2c3ccc(Br)cc3c3cc(O)cc1c32 [Example 2, 10-bromo-2-hydroxy-5-(3-pyridylmethyl)-4H-pyrido[3,2,1-jk]carbazol-4-one] | 0.1 µM | > 30 µM
5 | O=c1ccn2c3ccc(Br)cc3c3cc(OCc4ncon4)cc1c32 [Example 27, 10-bromo-2-(1,2,4-oxadiazol-3-yl)methyloxy-4H-pyrido[3,2,1-jk]carbazol-4-one] | 0.021 µM | > 30 µM
6 | CC(=O)Oc1ccc2c3cccc4c(=O)c(Cc5cccnc5)cn(c2c1)c43 [Example 45, 9-acetoxy-5-(3-pyridylmethyl)-4H-pyrido[3,2,1-jk]carbazol-4-one] | 0.06 µM | > 30 µM
7 | CCCC(=O)COc1cc2c(=O)c(C)cn3c4ccc(Br)cc4c(c1)c23 [Example 18, 10-bromo-2-(2-oxopentyloxy)-5-methyl-4H-pyrido[3,2,1-jk]carbazol-4-one] | 0.015 µM | > 30 µM
8 | CC(=O)Oc1cc2c(=O)ccn3c4ccc(Br)cc4c(c1)c23 [Example 28, 2-acetoxy-10-bromo-4H-pyrido[3,2,1-jk]carbazol-4-one] | 0.1 µM | > 100 µM
9 | CC(C)OC(=O)COc1cc2c(=O)ccn3c4ccc(Br)cc4c(c1)c23 [Example 22, 10-bromo-2-i-propoxycarbonylmethyloxy-4H-pyrido[3,2,1-jk]carbazol-4-one] | 0.0008 µM | > 30 µM
10 | CC(C)(C)OC(=O)COc1cc2c(=O)ccn3c4ccc(Br)cc4c(c1)c23 [Example 21, 10-bromo-2-t-butoxycarbonylmethyloxy-4H-pyrido[3,2,1-jk]carbazol-4-one] | 0.0009 µM | > 30 µM
11 | CCCC(=O)COc1cc2c(=O)ccn3c4ccc(Br)cc4c(c1)c23 [Example 29, 10-bromo-2-(2-oxopentyloxy)-4H-pyrido[3,2,1-jk]carbazol-4-one] | 0.0047 µM | > 30 µM
12 | CCOC(=O)COc1cc2c(=O)c(Cc3cccnc3)cn3c4ccc(Br)cc4c(c1)c23 [Example 5, 10-bromo-2-ethoxycarbonylmethyloxy-5-(3-pyridylmethyl)-4H-pyrido[3,2,1-jk]carbazol-4-one] | 0.0055 µM | > 30 µM
13 | CC(C)OC(=O)COc1cc2c(=O)c(Cc3cccnc3)cn3c4ccc(Br)cc4c(c1)c23 [Example 4, 10-bromo-2-i-propoxycarbonylmethyloxy-5-(3-pyridylmethyl)-4H-pyrido[3,2,1-jk]carbazol-4-one] | 0.0038 µM | > 30 µM
14 | CC(=O)Oc1cc2c(=O)c(Cc3cccnc3)cn3c4ccccc4c(c1)c23 [Example 42, 2-acetoxy-5-(3-pyridylmethyl)-4H-pyrido[3,2,1-jk]carbazol-4-one] | 0.2 µM | > 30 µM
15 | O=C(O)COc1cc2c(=O)c(Cc3cccnc3)cn3c4cc(Br)ccc4c(c1)c23 [Example 33, 9-bromo-2-carboxymethyloxy-5-(3-pyridylmethyl)-4H-pyrido[3,2,1-jk]carbazol-4-one] | 0.0032 µM | > 30 µM
